Reference: US4885307A, “Derivatives of 1-arylsulphonyl-1,5-dihydro-2H-pyrrol-2-one, and compositions containing them” (Roussel Uclaf, priority 1987, dated 1989)

System: male mice (Charles Rivers CD1)
Assay: Learning and memorizing: anti-amnesiac effect on electric shock-induced retrograde amnesia (two-compartment luminous/dark box avoidance)
Format: in vivo
Details: for Percentage increase in latency time in comparison with the controls: 3 hours after treatment, * = statistically different in comparison with controls; for anti-amnesic activity: at doses between 50 and 200 mg/kg, oral route
Excerpt: There were used male mice (Charles Rivers CD1) weighing 25-30 g. The animals were placed in the luminous part of a box with two compartments communicating by an opening [F. Barzaghi and G. Galliani, Brit. J. Pharmacol. 86, p.
At the instant when the mouse passes from the luminous compartment to the dark compartment, the opening closes and it is immediately punished by an electric discharge to the paws. The animal submitted to this procedure learns to memorize the punishment. In fact, if it is put back in the luminous compartment, it will thus avoid crossing the opening and reentering the dark compartment.
In order to induce a retrograde amnesia, the animals are submitted immediately after learning to an electric shock. After the electric shock, the products are administered by oral route at different doses.
There were used from 10 to 50 animals per dose.
The anti-amnesiac effect of the products is evaluated 3 hours after the treatment, using the same procedure as that utilized for the acquisition.
The time taken by the animal to return to the dark chamber (time limit 180 seconds) is used as evaluation parameter.
The active products are those which cause a significant increase in the latency time with a bell-shaped dose-response curve.
The results are expressed as percentages of the increase of the latency time in comparison with the corresponding controls.

Structure (SMILES)	Percentage increase in latency time in comparison with the controls (50 mg/kg per os) [%]	Percentage increase in latency time in comparison with the controls (100 mg/kg per os) [%]	Percentage increase in latency time in comparison with the controls (200 mg/kg per os) [%]	anti-amnesic activity
CCCCOC1C=CC(=O)N1S(=O)(=O)c1ccccc1 (stereo not drawn) [Example 4, 1-benzenesulphonyl-5-n-butoxy-1,5-dihydro-2H-pyrrol-2-one]	54	96	79	have shown an anti-amnesic activity
CCCCCOC1C=CC(=O)N1S(=O)(=O)c1ccccc1 (stereo not drawn) [Example 6, 1-benzenesulphonyl-1,5-dihydro-5-n-pentyloxy-2H-pyrrol-2-one]	73	92	76	have shown an anti-amnesic activity
CCCCOC1C=CC(=O)N1S(=O)(=O)c1cccc(C(F)(F)F)c1 (stereo not drawn) [Example 12, 1-(3-trifluoromethyl-benzenesulphonyl)-5-n-butyloxy-1,5-dihydro-2H-pyrrol-2-one]	20	75	92	have shown an anti-amnesic activity
NC(=O)CN1CCCC1=O [PIRACETAM, reference compound]	10	48	20	
